# Measurements: patent US20220062299A1, “USE OF GLUCOCORTICOID STEROIDS IN PREVENTING AND TREATING CONDITIONS OF MUSCLE WASTING, AGING AND METABOLIC DISORDER” (NORTHWESTERN UNIVERSITY, priority 2018, published 2022)
# Assays:
# [1] = tested on: Duchenne muscular dystrophy boys; set-up: dose or concentration left out as unconfirmed; details: cited from earlier work
# [2] = tested on: mdx; Dysf-null; Sgcg-null mice; test: Once-weekly glucocorticoids in three murine models of muscle disease; format: in vivo, mouse; details: 1 mg/kg once-weekly, contrary to daily dosing
# From the text: Glucocorticoid steroids are widely prescribed drugs for chronic inflammatory conditions, and their daily intake generally correlates with muscle wasting and weakness, osteoporosis, obesity and metabolic disorders. […] (Quattrocelli et al, J Clin Invest 2017; Quattrocelli et al, Am J Pathol 2017; Quattrocelli et al., JCI Insight. 2019 Dec. 19; 4(24). pii: 132402. doi: 10.1172/jci.insight.132402).
SMILES,muscle disease progression [1],muscle force and mass [2]
CC/C=C\C/C=C\C/C=C\C/C=C\C/C=C\C/C=C\CCC(=O)NCCNC(=O)c1ccccc1O [Edasalonexent],delayed,
CC(=O)OCC(=O)[C@@]12N=C(C)O[C@@H]1C[C@H]1[C@@H]3CCC4=CC(=O)C=C[C@]4(C)[C@H]3[C@@H](O)C[C@@]12C [deflazacort],,improved
